US8258305B2, “Dopamine transporter inhibitors for use in treatment of movement disorders and other CNS indications” (Prexa Pharmaceuticals, Inc., priority 2005, dated 2012)
“Also recorded” adds a separate entry of the source.

Legend:
[1] = test system: rat (immobility in forced swim test); experiment: Forced swim test (behavioral despair assay); format: in vivo
Description: The objective of this study was to assess the antidepressant effects of test compounds in the behaviral despair assay in rats using a modification of a method described by Porsolt R. D. et al. in Behavioral despair in rats: a new model sensitive to antidepressant treatment, Eur. J. Pharmacol., 47: 379-391, 1978; Porsolt et al., Nature 266: 730-732, 1977; and Porsolt et al., in Psychopharmacology, Olivier, Mos, and Slangen (eds) Birkhauser Verlag, Basel, pp. 137-159, 1991. Briefly, when mice (or rats) are forced to swim in a cylinder from which no escape is possible, they readily adopt a characteristic immobile posture and make no further attempts to escape except for small movements needed to keep floating. The immobility is considered by some to reflect a “depressive mood” (Porsolt et al., Nature 266: 730-732, 1977) in which animals cease to struggle to escape the aversive situation. The immobility induced by the procedure is influenced by a wide variety of antidepressants (Porsolt et al., in Psychopharmacology, Olivier, Mos, and Slangen (eds). Birkhauser. Verlag, Basel, pp. 137-159, 1991) and has a good predictive validity in that it detects antidepressants with different mechanisms of action (TCAs, SSRIs, MAOIs, and other atypical ones). The test is sensitive to muscle-relaxant (benzodiazepines) and sedative (neuroleptics) effects, leading to enhanced immobility (Porsolt et al., supra).
In a typical experiment, animals are placed singly into a cylinder (e.g. 46×30 cm) containing fresh water at about 20° C. for 6 minutes. The activity (or immobility) of the animal is measured by an observer minute by minute. In more detail, the animals were preconditioned in a pretest session, where the rats were individually forced to swim inside a vertical plexiglass cylinder containing water maintained at 19-20° C. After 15 minutes in the water, they were allowed to dry for 15 minutes in a heated enclosure. Twenty four hours later, the compounds were administered either intraperitoneally or orally to the animals. One hour after administration of the test compound, animals were put back into the cylinder containing water. The total duration of immobility was measured during the last 4 minutes of a 6 minute test.
The results are expressed as the percentage of variation of the total duration of immobility calculated from the mean value of the vehicle-treated group (% variation=[(immobility duration of vehicle−immobility duration of test compound)/(immobility duration of vehicle)]×100%). Only compounds which exibit a statistically significant variation (e.g. >30%) are considered effective in this in vivo model.
Sibutramine (2.0 and 2.5 mg/kg), Bupropion (7.5 and 10 mg/kg), and Imipramine (30 mg/kg) were similarly administered as controls. […] Asterisks indicate highly statistical significant results.
A fourth DAT inhibitor, CNS-28,002 was administered p.o. as a racemic mixture of diastereomers at either 35 or 75 mg/kg. Sibutramine (5.0 and 3.75 mg/kg), Bupropion (30 and 40 mg/kg), and Imipramine (100 mg/kg) were similarly administered as controls.
Sibutramine (5.0 and 3.75 mg/kg), Bupropion (30 and 40 mg/kg), and Imipramine (100 mg/kg) were similarly administered as controls.

rat = experiment: Acute single-dose toxicology (maximum tolerated dose); format: in vivo; conditions: for observed toxicological effects: rat (n = 5), i.v., observed for 72 hours
Protocol: An in vivo evaluation was carried out to determine the maximum tolerated dose of numerous test compounds in rat. The compounds were administered i.v., and the animals were then observed for 72 hours.
Briefly, experimental rats, in groups of 5 animals, were administered with various doses of respective DAT inhibitors (e.g. 30, 90, 120, and 200 mg/kg), and the observed toxicological effects were recorded.

NET [2] = molecular target: T1, NET (Homo sapiens, UniProt P23975); experiment: Functional norephinephrine uptake inhibition, MDCK cell line; format: cell-based
T1 construct: expressed in transfected cells; host or cells: MDCK
Protocol: (§1) Functional activity of the compounds was determined in vitro in cellular assays using recombinant human cell lines.

5-HT (serotonine uptake) = molecular target: T2, 5-HT (serotonine uptake) (Homo sapiens, UniProt P31645); format: cell-based; conditions: functional uptake
T2 construct: expressed in transfected cells; host or cells: HEK-293
Protocol: as §1

DAT = molecular target: T3, DAT (Homo sapiens, UniProt Q01959); format: cell-based; conditions: functional uptake
T3 construct: expressed in transfected cells
Protocol: as §1

NET [3] = molecular target: NET (Rattus norvegicus, UniProt Q63380); experiment: Functional uptake profile, rat NET; format: cell-based
Sprague-Dawley rats = experiment: 7-day multidose oral dosing toxicology study; conditions: 7 days; for observed symptoms: Sprague-Dawley rats (n = 6; 3M/3F), oral
Protocol: The oral doses tested are 50 mg/kg/day, 100 mg/kg/day, 200 mg/kg/day, and 400 mg/kg/day.

[4] = i.p., e.g. 7.5 and 15 mg/kg, racemic mixtures of diastereomers, FIG. 2
[5] = single dose 200 mg/kg, 200 mg/kg
[6] = p.o., 35 or 75 mg/kg, FIG. 3 and FIG. 4

T2 sequence (P31645 whole entry): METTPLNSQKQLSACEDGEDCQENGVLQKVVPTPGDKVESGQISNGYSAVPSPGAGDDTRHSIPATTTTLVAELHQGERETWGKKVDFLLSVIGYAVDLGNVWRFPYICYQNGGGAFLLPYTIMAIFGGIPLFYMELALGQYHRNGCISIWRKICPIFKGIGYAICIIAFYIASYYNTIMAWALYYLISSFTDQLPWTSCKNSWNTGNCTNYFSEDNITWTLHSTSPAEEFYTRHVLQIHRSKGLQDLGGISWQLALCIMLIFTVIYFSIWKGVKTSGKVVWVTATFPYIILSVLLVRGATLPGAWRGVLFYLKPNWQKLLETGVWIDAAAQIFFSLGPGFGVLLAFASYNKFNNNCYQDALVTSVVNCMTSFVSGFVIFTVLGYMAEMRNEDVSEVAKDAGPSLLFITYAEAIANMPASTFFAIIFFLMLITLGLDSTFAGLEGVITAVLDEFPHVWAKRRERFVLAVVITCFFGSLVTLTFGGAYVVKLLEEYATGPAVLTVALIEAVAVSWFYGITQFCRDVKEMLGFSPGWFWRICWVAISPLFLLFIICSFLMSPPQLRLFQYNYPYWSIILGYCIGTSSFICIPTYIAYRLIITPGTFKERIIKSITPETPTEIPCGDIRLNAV
Chain of NET (Rattus norvegicus, UniProt Q63380) (Q63380 1-617): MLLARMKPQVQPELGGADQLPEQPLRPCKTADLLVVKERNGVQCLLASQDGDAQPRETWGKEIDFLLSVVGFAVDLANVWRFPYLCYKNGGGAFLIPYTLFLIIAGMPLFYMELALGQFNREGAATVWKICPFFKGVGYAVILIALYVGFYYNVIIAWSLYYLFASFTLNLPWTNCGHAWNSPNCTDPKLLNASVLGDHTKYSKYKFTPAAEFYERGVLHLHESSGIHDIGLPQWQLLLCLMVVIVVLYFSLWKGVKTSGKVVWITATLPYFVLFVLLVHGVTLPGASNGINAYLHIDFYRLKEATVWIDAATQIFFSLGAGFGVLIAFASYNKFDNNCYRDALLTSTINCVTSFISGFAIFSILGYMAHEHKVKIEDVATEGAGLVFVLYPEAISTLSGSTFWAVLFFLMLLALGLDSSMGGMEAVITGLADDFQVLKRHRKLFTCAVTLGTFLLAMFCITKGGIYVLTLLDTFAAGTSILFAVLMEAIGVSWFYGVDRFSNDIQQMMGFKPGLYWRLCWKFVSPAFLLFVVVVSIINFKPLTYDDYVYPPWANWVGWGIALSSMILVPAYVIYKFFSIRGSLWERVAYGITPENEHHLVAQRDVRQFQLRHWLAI
T3 sequence (Q01959 whole entry): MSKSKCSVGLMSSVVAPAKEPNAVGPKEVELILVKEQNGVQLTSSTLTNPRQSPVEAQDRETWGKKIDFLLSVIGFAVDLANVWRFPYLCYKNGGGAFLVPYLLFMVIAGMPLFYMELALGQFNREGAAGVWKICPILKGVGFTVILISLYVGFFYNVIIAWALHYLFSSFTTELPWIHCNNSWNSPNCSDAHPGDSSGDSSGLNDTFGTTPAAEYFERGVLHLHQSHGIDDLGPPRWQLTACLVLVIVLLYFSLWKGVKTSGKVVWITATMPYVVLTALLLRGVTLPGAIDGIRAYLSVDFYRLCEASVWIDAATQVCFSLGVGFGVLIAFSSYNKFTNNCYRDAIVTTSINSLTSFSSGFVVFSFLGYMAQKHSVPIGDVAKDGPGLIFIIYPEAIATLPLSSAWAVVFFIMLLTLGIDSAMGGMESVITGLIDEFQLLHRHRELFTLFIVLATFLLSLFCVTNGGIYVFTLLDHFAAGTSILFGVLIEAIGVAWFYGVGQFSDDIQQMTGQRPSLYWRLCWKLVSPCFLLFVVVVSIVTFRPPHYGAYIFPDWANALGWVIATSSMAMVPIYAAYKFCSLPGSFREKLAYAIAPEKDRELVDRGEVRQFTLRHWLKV
T1 sequence (P23975 whole entry): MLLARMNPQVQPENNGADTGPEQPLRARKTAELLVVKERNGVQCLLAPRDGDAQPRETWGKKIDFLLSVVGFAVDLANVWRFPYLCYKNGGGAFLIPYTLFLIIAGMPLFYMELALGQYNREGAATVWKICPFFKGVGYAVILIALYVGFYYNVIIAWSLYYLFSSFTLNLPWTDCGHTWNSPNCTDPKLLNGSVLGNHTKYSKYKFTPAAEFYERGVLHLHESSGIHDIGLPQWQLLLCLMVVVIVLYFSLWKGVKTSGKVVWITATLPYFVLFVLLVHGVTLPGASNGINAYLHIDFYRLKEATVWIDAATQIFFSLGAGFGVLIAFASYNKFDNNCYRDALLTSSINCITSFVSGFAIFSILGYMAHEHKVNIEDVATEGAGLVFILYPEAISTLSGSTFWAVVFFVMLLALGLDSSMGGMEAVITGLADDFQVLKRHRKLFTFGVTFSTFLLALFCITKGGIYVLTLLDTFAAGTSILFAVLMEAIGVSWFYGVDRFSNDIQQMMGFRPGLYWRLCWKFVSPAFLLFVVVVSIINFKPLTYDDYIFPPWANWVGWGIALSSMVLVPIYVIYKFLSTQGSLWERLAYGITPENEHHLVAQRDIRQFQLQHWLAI

SMILES: CC1CCC(COc2ccc(C(F)(F)F)cc2)CN1CC(O)C1(c2ccc(Cl)cc2)CCC1 (centres unmarked) [CNS-28,200]
- in vivo efficacy in forced swim test compared with commercial drugs [1, 4]: performed equally well, if not better, than the commercial drugs Sibutramine, Bupropion, and Imipramine
- observed toxicological effects (rat; single dose 120 mg/kg, 120 mg/kg): decreased grip strength and limb tone and convulsions
- observed toxicological effects (rat; [5]): Convulsions
- toxic dose relative to the effective dose shown in FIG. 2 (rat; rat, dose with convulsions vs forced swim test effective dose): about 10 times

SMILES: CC(C)C[C@@H](N)C1(c2ccc(Cl)cc2)CCC1 [R-DDMS]
- EC50 (NET [2]): 200 nM
- EC50 (5-HT (serotonine uptake)): 1500 nM
- EC50 (DAT): 100 nM

SMILES: CC1CCC(COc2ccc(C(F)(F)F)cc2)CN1CC1(c2ccc(Cl)cc2)CCC1 (centres unmarked) [CNS-28,100]
- EC50 (NET [3]): 300 nM
- in vivo efficacy in forced swim test compared with commercial drugs [1, 4]: performed equally well, if not better, than the commercial drugs Sibutramine, Bupropion, and Imipramine

SMILES: CC1CCN(CC2(c3ccc(Cl)cc3)CCC2)CC1COc1ccc(C(F)(F)F)cc1 (centres unmarked) [CNS-27,100]
- EC50 (NET [3]): 1000 nM
- in vivo efficacy in forced swim test compared with commercial drugs [1, 4]: performed equally well, if not better, than the commercial drugs Sibutramine, Bupropion, and Imipramine
- in vivo efficacy in forced swim test compared with commercial drugs [1, 6]: performed equally well, if not better, than the commercial drugs Sibutramine, Bupropion, and Imipramine
- observed toxicological effects (rat; [5]): decreased grip strength, and slight depression
- doses tolerated well with no significant observed symptoms (rat; rat, single dose): below 120 mg/kg

SMILES: CC1C(COc2ccc(C(F)(F)F)cc2)CCCN1CC(O)C1(c2ccc(Cl)cc2)CCC1 (centres unmarked) [CNS-28,002]
- in vivo efficacy in forced swim test compared with commercial drugs [1, 6]: performed equally well, if not better, than the commercial drugs Sibutramine, Bupropion, and Imipramine
- observed toxicological effects (rat; [5]): no observed symptoms

SMILES: CC(C)CC(N(C)C)C1(c2ccc(Cl)cc2)CCC1 (centres unmarked) [Sibutramine]
- observed symptoms (Sprague-Dawley rats; 100 mg/kg/day): decreased grip strength, depression
- observed symptoms (Sprague-Dawley rats; 400 mg/kg/day): convulsions; also recorded: Convulsions;
- deaths (number of animals) (Sprague-Dawley rats; n = 6, oral, 200 mg/kg/day): 2 deaths
- self mutilation (number of animals) (Sprague-Dawley rats; n = 6, oral, 200 mg/kg/day): 6 self mutilation

SMILES: CN[C@H](CC(C)C)C1(c2ccc(Cl)cc2)CCC1 [R-DMS]
- EC50 (NET [2]): 300 nM
- EC50 (5-HT (serotonine uptake)): 1500 nM
- EC50 (DAT): 30 nM
